Experimental data: ChEMBL document CHEMBL4229455, “Synthesis and anticancer activity of novel bisindolylhydroxymaleimide derivatives with potent GSK-3 kinase inhibition” (Bioorg Med Chem, 2018)

How the values were obtained:
Type in all cases: functional
EKVX [1] = experiment: Cytotoxicity against human EKVX cells assessed as cell growth at 0.01 uM after 48 hrs by SRB assay relative to control; conditions: read-out: Activity
OVCAR-3 = experiment: Cytotoxicity against human OVCAR3 cells assessed as cell growth at 0.01 uM after 48 hrs by SRB assay relative to control; conditions: OVCAR-3, 48 h, read-out: Activity
OVCAR-4 [2] = experiment: Cytotoxicity against human OVCAR4 cells assessed as cell growth at 0.01 uM after 48 hrs by SRB assay relative to control; conditions: OVCAR-4, 48 h, read-out: Activity
MCF7 = experiment: Cytotoxicity against human MCF7 cells assessed as cell growth at 0.01 uM after 48 hrs by SRB assay relative to control; conditions: MCF7, 48 h, read-out: Activity
HL-60(TB) = experiment: Cytotoxicity against human HL-60(TB) cells assessed as cell growth at 0.1 uM after 48 hrs by SRB assay relative to control; conditions: HL-60, 48 h, read-out: Activity
SR = experiment: Cytotoxicity against human SR cells assessed as cell growth at 0.1 uM after 48 hrs by SRB assay relative to control; conditions: read-out: Activity
EKVX [3] = experiment: Cytotoxicity against human EKVX cells assessed as cell growth at 0.1 uM after 48 hrs by SRB assay relative to control; conditions: read-out: Activity
NCI-H23 = experiment: Cytotoxicity against human NCI-H23 cells assessed as cell growth at 0.1 uM after 48 hrs by SRB assay relative to control; conditions: NCI-H23, 48 h, read-out: Activity
COLO 205 = experiment: Cytotoxicity against human COLO205 cells assessed as cell growth at 0.1 uM after 48 hrs by SRB assay relative to control; conditions: COLO 205, 48 h, read-out: Activity
SF-295 = experiment: Cytotoxicity against human SF295 cells assessed as cell growth at 0.1 uM after 48 hrs by SRB assay relative to control; conditions: SF-295, 48 h, read-out: Activity
SK-MEL-5 = experiment: Cytotoxicity against human SK-MEL-5 cells assessed as cell growth at 0.1 uM after 48 hrs by SRB assay relative to control; conditions: SK-MEL-5, 48 h, read-out: Activity
OVCAR-4 [4] = experiment: Cytotoxicity against human OVCAR4 cells assessed as cell growth at 0.1 uM after 48 hrs by SRB assay relative to control; conditions: OVCAR-4, 48 h, read-out: Activity
CAKI-1 = experiment: Cytotoxicity against human Caki1 cells assessed as cell growth at 0.1 uM after 48 hrs by SRB assay relative to control; conditions: CAKI-1, 48 h, read-out: Activity
RXF 393 [5] = experiment: Cytotoxicity against human RXF393 cells assessed as cell growth at 0.1 uM after 48 hrs by SRB assay relative to control; conditions: RXF 393, 48 h, read-out: Activity
TK-10 [6] = experiment: Cytotoxicity against human TK10 cells assessed as cell growth at 0.1 uM after 48 hrs by SRB assay relative to control; conditions: TK-10, 48 h, read-out: Activity
T47D = experiment: Cytotoxicity against human T47D cells assessed as cell growth at 0.1 uM after 48 hrs by SRB assay relative to control; conditions: read-out: Activity
EKVX [7] = experiment: Cytotoxicity against human EKVX cells assessed as cell growth at 1 uM after 48 hrs by SRB assay relative to control; conditions: read-out: Activity
OVCAR-4 [8] = experiment: Cytotoxicity against human OVCAR4 cells assessed as cell growth at 1 uM after 48 hrs by SRB assay relative to control; conditions: OVCAR-4, 48 h, read-out: Activity
DU-145 = experiment: Cytotoxicity against human DU145 cells assessed as cell growth at 1 uM after 48 hrs by SRB assay relative to control; conditions: DU-145, 48 h, read-out: Activity
BT-549 = experiment: Cytotoxicity against human BT549 cells assessed as cell growth at 1 uM after 48 hrs by SRB assay relative to control; conditions: BT-549, 48 h, read-out: Activity
EKVX [9] = experiment: Cytotoxicity against human EKVX cells assessed as cell growth at 100 uM after 48 hrs by SRB assay relative to control; conditions: read-out: Activity
OVCAR-4 [10] = experiment: Cytotoxicity against human OVCAR4 cells assessed as cell growth at 100 uM after 48 hrs by SRB assay relative to control; conditions: OVCAR-4, 48 h, read-out: Activity
SK-OV-3 = experiment: Cytotoxicity against human SKOV3 cells assessed as cell growth at 100 uM after 48 hrs by SRB assay relative to control; conditions: SK-OV-3, 48 h, read-out: Activity
RXF 393 [11] = experiment: Cytotoxicity against human RXF393 cells assessed as cell growth at 100 uM after 48 hrs by SRB assay relative to control; conditions: RXF 393, 48 h, read-out: Activity
UO-31 = experiment: Cytotoxicity against human UO31 cells assessed as cell growth at 100 uM after 48 hrs by SRB assay relative to control; conditions: UO-31, 48 h, read-out: Activity
EKVX [12] = experiment: Cytotoxicity against human EKVX cells after 48 hrs by SRB assay
HCC 2998 = experiment: Cytotoxicity against human HCC2998 cells after 48 hrs by SRB assay; conditions: HCC 2998, 48 h
M14 = experiment: Cytotoxicity against human M14 cells after 48 hrs by SRB assay; conditions: M14, 48 h
OVCAR-4 [13] = experiment: Cytotoxicity against human OVCAR4 cells after 48 hrs by SRB assay; conditions: OVCAR-4, 48 h
TK-10 [14] = experiment: Cytotoxicity against human TK10 cells after 48 hrs by SRB assay; conditions: TK-10, 48 h; for CC50: read-out: LC50 (the source's name)
NCI-H322M [15] = experiment: Cytotoxicity against human NCI-H322M cells assessed as cell growth at 0.01 uM after 48 hrs by SRB assay relative to control; conditions: read-out: Activity
NCI-H322M [16] = experiment: Cytotoxicity against human NCI-H322M cells assessed as cell growth at 0.1 uM after 48 hrs by SRB assay relative to control; conditions: read-out: Activity
NCI-H322M [17] = experiment: Cytotoxicity against human NCI-H322M cells assessed as cell growth at 1 uM after 48 hrs by SRB assay relative to control; conditions: read-out: Activity
NCI-H322M [18] = experiment: Cytotoxicity against human NCI-H322M cells assessed as cell growth at 100 uM after 48 hrs by SRB assay relative to control; conditions: read-out: Activity
U-251 [19] = experiment: Cytotoxicity against human U251 cells assessed as cell growth at 0.01 uM after 48 hrs by SRB assay relative to control; conditions: U-251, 48 h, read-out: Activity
U-251 [20] = experiment: Cytotoxicity against human U251 cells assessed as cell growth at 0.1 uM after 48 hrs by SRB assay relative to control; conditions: U-251, 48 h, read-out: Activity
U-251 [21] = experiment: Cytotoxicity against human U251 cells assessed as cell growth at 1 uM after 48 hrs by SRB assay relative to control; conditions: U-251, 48 h, read-out: Activity
U-251 [22] = experiment: Cytotoxicity against human U251 cells assessed as cell growth at 100 uM after 48 hrs by SRB assay relative to control; conditions: U-251, 48 h, read-out: Activity
U-251 [23] = experiment: Cytotoxicity against human U251 cells after 48 hrs by SRB assay; conditions: U-251, 48 h
[24] = read-out: LC50 (the source's name)

Row | SMILES | growth at 0.01 µM (OVCAR-3) | growth at 0.01 µM (MCF7) | growth at 0.1 µM (HL-60(TB)) | growth at 0.1 µM (SR) | growth at 0.1 µM (NCI-H23) | growth at 0.1 µM (COLO 205) | growth at 0.1 µM (SF-295) | growth at 0.1 µM (SK-MEL-5) | growth at 0.1 µM (CAKI-1) | growth at 0.1 µM (RXF 393 [5]) | growth at 0.1 µM (TK-10 [6]) | growth at 0.1 µM (T47D) | growth at 1 µM (DU-145) | growth at 1 µM (BT-549) | growth at 100 µM (RXF 393 [11]) | growth at 100 µM (UO-31) | GI50 (HCC 2998) | TGI (HCC 2998) | GI50 (M14) | TGI (M14) | further results
1 | Cn1cc(C2=C(c3cn(C)c4ncccc34)C(=O)NC2=O)c2ccccc21 | 107% | 93% | 99% | 88% | 95% | 109% | 93% | 101% | 86% | 98% | 105% | 100% | 104% | 85% | -49% | -17% | 4.35 µM | 28.2 µM | 3.84 µM | 12.5 µM | growth at 0.01 µM (EKVX [1]): 91%; growth at 0.01 µM (OVCAR-4 [2]): 102%; growth at 0.1 µM (EKVX [3]): 84%; growth at 0.1 µM (OVCAR-4 [4]): 87%; growth at 1 µM (EKVX [7]): 65%; growth at 1 µM (OVCAR-4 [8]): 85%; growth at 100 µM (EKVX [9]): -42%; growth at 100 µM (OVCAR-4 [10]): -3%; growth at 100 µM (SK-OV-3): -7%; GI50 (EKVX [12]): 1.83 µM; TGI (EKVX [12]): 15.1 µM; CC50 (EKVX [12]; [24]): > 100 µM; GI50 (OVCAR-4 [13]): 4.86 µM; TGI (OVCAR-4 [13]): 83.1 µM; CC50 (OVCAR-4 [13]; [24]): > 100 µM; GI50 (TK-10 [14]): 4.82 µM; TGI (TK-10 [14]): 43.9 µM; CC50 (TK-10 [14]): > 100 µM
2 | N#CCCCCCn1cc(C2=C(c3cn(CCCCCC#N)c4ccccc34)C(=O)N(O)C2=O)c2ccccc21 | 99% | 91% | 89% | 100% | 90% | 93% | 91% | 99% | 95% | 102% | 95% | 89% | 107% | 89% | -25% | -1% | 14.2 µM | > 100 µM | 4.42 µM | 34 µM | LC50 (HCC 2998): > 100 µM; LC50 (concentration killing 50% of cells) (M14): > 100 µM; GI50 (TK-10 [14]): 22.2 µM; TGI (TK-10 [14]): > 100 µM; CC50 (TK-10 [14]): > 100 µM; growth at 0.01 µM (NCI-H322M [15]): 98%; growth at 0.1 µM (NCI-H322M [16]): 99%; growth at 1 µM (NCI-H322M [17]): 100%; growth at 100 µM (NCI-H322M [18]): -4%; growth at 0.01 µM (U-251 [19]): 102%; growth at 0.1 µM (U-251 [20]): 100%; growth at 1 µM (U-251 [21]): 100%; growth at 100 µM (U-251 [22]): 5%; GI50 (U-251 [23]): 4.65 µM; TGI (U-251 [23]): > 100 µM; CC50 (U-251 [23]; [24]): > 100 µM
